Like-named read-outs stand apart in the source and are kept apart here.
Target: T1, SIRT1 (Homo sapiens, UniProt Q96EB6)
T1 sequence (Q96EB6 1-747): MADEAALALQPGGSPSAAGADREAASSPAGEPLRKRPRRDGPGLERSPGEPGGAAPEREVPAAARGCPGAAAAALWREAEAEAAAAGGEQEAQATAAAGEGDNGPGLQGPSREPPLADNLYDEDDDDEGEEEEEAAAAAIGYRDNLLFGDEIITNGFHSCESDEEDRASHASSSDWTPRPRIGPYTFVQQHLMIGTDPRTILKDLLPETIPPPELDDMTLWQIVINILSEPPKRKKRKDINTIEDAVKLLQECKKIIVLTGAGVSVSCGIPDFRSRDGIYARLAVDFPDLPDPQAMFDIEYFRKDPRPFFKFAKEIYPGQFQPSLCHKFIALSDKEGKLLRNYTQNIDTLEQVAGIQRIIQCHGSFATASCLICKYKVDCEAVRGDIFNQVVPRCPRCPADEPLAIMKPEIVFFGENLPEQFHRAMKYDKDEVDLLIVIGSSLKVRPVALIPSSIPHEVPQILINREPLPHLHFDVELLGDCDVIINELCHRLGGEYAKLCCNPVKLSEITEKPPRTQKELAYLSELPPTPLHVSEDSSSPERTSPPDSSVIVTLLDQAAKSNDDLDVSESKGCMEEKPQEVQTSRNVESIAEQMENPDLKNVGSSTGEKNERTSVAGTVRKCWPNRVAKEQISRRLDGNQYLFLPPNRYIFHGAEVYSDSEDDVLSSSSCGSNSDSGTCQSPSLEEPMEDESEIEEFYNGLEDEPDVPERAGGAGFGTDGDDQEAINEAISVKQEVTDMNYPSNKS
Assay: TAMRA based mass spectrometry assay of SIRT1 activity
Assay type: biochemical
Details: for Emax: read-out: TAMRA % Fold Act
Excerpt: Mass spectrometry based assays were used to identify modulators of SIRT1 activity. The TAMRA based assay utilized a peptide having 20 amino acid residues as follows: Ac-EE-K(biotin)-[…](Ac)NleSTEG-K(5TMR)-EE-NH2 (SEQ ID NO: 1), wherein K(Ac) is an acetylated lysine residue and Nle is a norleucine. The peptide was labeled with the fluorophore 5TMR (excitation 540 nm/emission 580 nm) at the C-terminus. The sequence of the peptide substrate was based on p53 with several modifications. In addition, the methionine residue naturally present in the sequence was replaced with the norleucine because the methionine may be susceptible to oxidation during synthesis and purification. The Trp based assay utilized a peptide having an amino acid residues as follows: Ac-R-H-K-K(Ac)-W-NH2 (SEQ ID NO: 2).
The TAMRA based mass spectrometry assay was conducted as follows: 0.5 μM peptide substrate and 120 μM βNAD^+ was incubated with 10 nM SIRT1 for 25 minutes at 25° C. in a reaction buffer (50 mM Tris-acetate pH 8, 137 mM NaCl, 2.7 mM KCl, 1 mM MgCl2, 5 mM DTT, 0.05% BSA). The SIRT1 protein was obtained by cloning the SirT1 gene into a T7-promoter containing vector, which was then transformed and expressed in BL21(DE3) bacterial cells. Test compound was added at varying concentrations to this reaction mixture and the resulting reactions were monitored. After the 25 minute incubation with SIRT1, 10 μL of 10% formic acid was added to stop the reaction. The resulting reactions were sealed and frozen for later mass spec analysis. Determination of the amount of deacetylated substrate peptide formed (or, alternatively, the amount of O-acetyl-ADP-ribose (OAADPR) generated) by the sirtuin-mediated NAD-dependent deacetylation reaction allowed for the precise measurement of relative SIRT1 activity in the presence of varying concentrations of the test compound versus control reactions lacking the test compound.
A control for inhibition of sirtuin activity was conducted by adding 1 μL of 500 mM nicotinamide as a negative control at the start of the reaction (e.g., permits determination of maximum sirtuin inhibition). A control for activation of sirtuin activity was conducted using 10 nM of sirtuin protein, with 1 μL of DMSO in place of compound, to determine the amount of deacetylation of the substrate at a given time point within the linear range of the assay. This time point was the same as that used for test compounds and, within the linear range, the endpoint represents a change in velocity.
For the above assay, SIRT1 protein was expressed and purified as follows. The SirT1 gene was cloned into a T7-promoter containing vector and transformed into BL21(DE3). The protein was expressed by induction with 1 mM IPTG as an N-terminal His-tag fusion protein at 18° C. overnight and harvested at 30,000×g. Cells were lysed with lysozyme in lysis buffer (50 mM Tris-HCl, 2 mM Tris[2-carboxyethyl]phosphine (TCEP), 10 μM ZnCl2, 200 mM NaCl) and further treated with sonication for […] for complete lysis. The protein was purified over a Ni-NTA column (Amersham) and fractions containing pure protein were pooled, concentrated and run over a sizing column (Sephadex S200 26/60 global). The peak containing soluble protein was collected and run on an Ion-exchange column (MonoQ). Gradient elution (200 mM-500 mM NaCl) yielded pure protein. This protein was concentrated and dialyzed against dialysis buffer (20 mM Tris-HCl, 2 mM TCEP) overnight. The protein was aliquoted and frozen at −80° C. until further use.

[1] = TAMRA assay, concentration giving 150% activation of SIRT1
[2] = TAMRA assay, percent maximum fold activation
[3] = TAMRA peptide substrate, concentration giving 150% activation of SIRT1
[4] = TAMRA peptide substrate, percent maximum fold activation
[5] = concentration of test compound giving 150% activation of SIRT1, TAMRA peptide substrate
[6] = percent maximum fold activation of SIRT1, TAMRA peptide substrate

TAMRA EC1.5 (μM) [1]	Emax [2]	SMILES	further results
A (EC1.5<1 μM)	≥ 350%	Cc1cc(C)nc(NC(=O)c2cnn3ccc(-c4ccccc4OC(F)(F)F)nc23)c1 [Compound 605]	
		COc1nccc(NC(=O)c2cnn3ccc(-c4ccccc4C(F)(F)F)nc23)n1 [Compound 519]	TAMRA EC1.5 [3]: A (EC1.5<1 μM); Emax [4]: ≥ 350%
B (EC1.5 1-25 μM)	< 350%	Cc1nccc(NC(=O)c2cnn3ccc(-c4ccccc4C(F)(F)F)nc23)c1C [Compound 620]	
		Cc1cc(-c2ccccc2C(F)(F)F)nn2c(C(=O)Nc3ccccn3)cnc12 [Compound 194]	TAMRA EC1.5 (μM) [5]: A (EC1.5<1 μM); Emax [6]: ≥ 350%
		Cc1cnc(C(=O)Nc2cnc3cc(C)c(-c4ccccc4C(F)(F)F)nn23)s1 [Compound 447]	TAMRA EC1.5 [3]: A (EC1.5<1 μM); Emax [4]: ≥ 350%
		Cc1cc2ncc(NC(=O)c3ncccn3)n2nc1-c1ccccc1C(F)(F)F [Compound 444]	TAMRA EC1.5 [3]: A (EC1.5<1 μM); Emax [4]: ≥ 350%
B (EC1.5 1-25 μM)	< 350%	Cc1cc(C)nc(NC(=O)c2c(O)nc3ccc(-c4ccccc4C(F)(F)F)nn23)c1 [Compound 365]	
		Cn1nccc1NC(=O)c1cnc2ccc(-c3ccccc3C(F)(F)F)nn12 [Compound 115]	TAMRA EC1.5 (μM) [5]: C (EC1.5>25 μM); Emax [6]: < 350%
B (EC1.5 1-25 μM)	< 350%	O=C(Nc1ccccn1)c1cnc2ccc(-c3cccc(OCC(O)CO)c3)nn12 (stereo not shown) [Compound 373]	
B (EC1.5 1-25 μM)	≥ 350%	Cc1nc(C(=O)Nc2cnc3ccc(-c4ccccc4C#N)nn23)cs1 [Compound 333]	
A (EC1.5<1 μM)	≥ 350%	O=C(Nc1cnc2ccc(-c3ccccc3C(F)(F)F)nn12)c1cc(O)ncn1 [Compound 705]	
A (EC1.5<1 μM)	≥ 350%	Cc1scnc1C(=O)Nc1cnc2ccc(-c3ccccc3C(F)(F)F)nn12 [Compound 271]	
		O=C(Nc1cccnc1)c1cnc2ccc(-c3ccccc3Cl)nn12 [Compound 118]	TAMRA EC1.5 (μM) [5]: B (EC1.5 1-25 μM); Emax [6]: < 350%
B (EC1.5 1-25 μM)	≥ 350%	Cc1cnc(C(=O)Nc2cnc3ccc(-c4ccccc4C#N)nn23)s1 [Compound 336]	
		O=C(Nc1ccnc(N2CCC2)c1)c1cnc2ccc(-c3ccccc3Cl)nn12 [Compound 96]	TAMRA EC1.5 (μM) [5]: A (EC1.5<1 μM); Emax [6]: ≥ 350%
		O=C(Nc1cccc(N2CCC2)n1)c1cnc2ccc(-c3ccccc3C(F)(F)F)nn12 [Compound 49]	TAMRA EC1.5 (μM) [5]: A (EC1.5<1 μM); Emax [6]: ≥ 350%
A (EC1.5<1 μM)	≥ 350%	Cc1cnc(NC(=O)c2cnn3ccc(-c4ccccc4C(F)(F)F)nc23)cn1 [Compound 723, N-(5-methylpyrazin-2-yl)-5-(2-(trifluoromethyl)phenyl)pyrazolo[1,5-a]pyrimidine-3-carboxamide]	
B (EC1.5 1-25 μM)	< 350%	O=C(Nc1cnc2ccc(-c3ccccc3F)nn12)c1ncccn1 [Compound 282]	
		Cc1nc2c(C)cc(-c3ccccc3C(F)(F)F)nn2c1C(=O)Nc1ccnc(OC2CCOCC2)n1 [Compound 593]	TAMRA EC1.5 [3]: A (EC1.5<1 μM); Emax [4]: ≥ 350%

TAMRA EC1.5 (μM) [1]	Emax [2]	SMILES	further results
A (EC1.5<1 μM)	≥ 350%	O=C(Nc1ccncn1)c1cnn2ccc(-c3ccccc3C(F)(F)F)nc12 [Compound 268]	
		Cn1cc(NC(=O)c2cnc3ccc(-c4ccccc4C(F)(F)F)nn23)cn1 [Compound 153]	TAMRA EC1.5 (μM) [5]: B (EC1.5 1-25 μM); Emax [6]: ≥ 350%
A (EC1.5<1 μM)	≥ 350%	COc1cc(NC(=O)c2cnn3ccc(-c4ccccc4OC(F)(F)F)nc23)ncn1 [Compound 703]	
C (EC1.5>25 μM)	< 350%	Cc1cccc(NC(=O)c2c(O)nc3ccc(-c4ccccc4C(F)(F)F)nn23)n1 [Compound 343]	
		Cc1cncc(NC(=O)c2cnc3ccc(-c4ccccc4C(F)(F)F)nn23)c1 [Compound 97]	TAMRA EC1.5 (μM) [5]: B (EC1.5 1-25 μM); Emax [6]: ≥ 350%
		O=C(NCc1cccnc1)c1cnc2ccc(-c3cccc(C(F)(F)F)c3)nn12 [Compound 1]	TAMRA EC1.5 (μM) [5]: B (EC1.5 1-25 μM); Emax [6]: < 350%
		O=C(Nc1cnc2ccc(-c3ccccc3C(F)(F)F)nn12)c1ccccn1 [Compound 85]	TAMRA EC1.5 (μM) [5]: A (EC1.5<1 μM); Emax [6]: ≥ 350%
		Cc1nc2ccc(-c3ccccc3C(F)(F)F)nn2c1C(=O)Nc1ccccn1 [Compound 498]	TAMRA EC1.5 [3]: A (EC1.5<1 μM); Emax [4]: ≥ 350%
B (EC1.5 1-25 μM)	< 350%	Cc1ccc(C(=O)Nc2cnc3ccc(-c4ccccc4C(F)(F)F)nn23)c(C)n1 [Compound 394]	
A (EC1.5<1 μM)	≥ 350%	Cc1ccnc(NC(=O)c2cnc3ccc(-c4ccccc4C(F)(F)F)nn23)n1 [Compound 270]	
A (EC1.5<1 μM)	≥ 350%	CCOc1cc(NC(=O)c2cnn3ccc(-c4ccccc4OC(F)(F)F)nc23)ccn1 [Compound 626]	
		COCCn1cc(NC(=O)c2cnc3ccc(-c4ccccc4C(F)(F)F)nn23)cn1 [Compound 154]	TAMRA EC1.5 (μM) [5]: B (EC1.5 1-25 μM); Emax [6]: ≥ 350%
		Cc1cc2ncc(NC(=O)c3ccccn3)n2nc1-c1ccccc1C(F)(F)F [Compound 441, N-(7-methyl-6-(2-(trifluoromethyl)phenyl)imidazo[1,2-b]pyridazin-3-yl)picolinamide]	TAMRA EC1.5 [3]: A (EC1.5<1 μM); Emax [4]: ≥ 350%
A (EC1.5<1 μM)	≥ 350%	Cc1ccnc(C(=O)Nc2cnn3ccc(-c4ccccc4OC(F)(F)F)nc23)c1 [Compound 714]	
		O=C(Nc1cncnc1)c1cnc2ccc(-c3ccccc3C(F)(F)F)nn12 [Compound 106]	TAMRA EC1.5 (μM) [5]: B (EC1.5 1-25 μM); Emax [6]: < 350%
A (EC1.5<1 μM)	≥ 350%	Cc1nn2ccc(-c3ccccc3C(F)(F)F)nc2c1C(=O)Nc1nccs1 [Compound 709]	
A (EC1.5<1 μM)	≥ 350%	COc1ccc(NC(=O)c2c(C)nc3ccc(-c4ccccc4Br)nn23)nn1 [Compound 765]	
B (EC1.5 1-25 μM)	< 350%	CCOc1ccc(NC(=O)c2c(C)nc3ccc(-c4ccccc4C)nn23)nn1 [Compound 721]	
A (EC1.5<1 μM)	≥ 350%	Cc1cccc(C(=O)Nc2cnc3ccc(-c4ccccc4C(F)(F)F)nn23)n1 [Compound 234]	
